What was measured:
Experiment in all cases: liposome pelleting
Assay type in all cases: binding
Settings in all cases: 10 mol% lipid in POPC/POPE liposomes, 20 µM protein, pH 7.2, 125 mM NaCl
SNX3 = target: T1, SNX3 (Homo sapiens, UniProt O60493)
T1 construct: PX domain only, N-terminal GST removed by thrombin, E. coli

SNX17 = target: T2, SNX17 (Homo sapiens, UniProt Q15036)
T2 construct: PX domain only, N-terminal GST removed by thrombin, E. coli
T2 sequence (Q15036 1-109 limits assumed): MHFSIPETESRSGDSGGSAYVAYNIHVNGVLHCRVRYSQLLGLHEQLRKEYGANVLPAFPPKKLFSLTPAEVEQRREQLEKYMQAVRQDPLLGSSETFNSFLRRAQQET

SNX7 = target: T3, SNX7 (Homo sapiens, UniProt Q9UNH6)
T3 construct: PX domain only, N-terminal GST removed by thrombin, E. coli
T3 sequence (Q9UNH6 30-151 limits assumed): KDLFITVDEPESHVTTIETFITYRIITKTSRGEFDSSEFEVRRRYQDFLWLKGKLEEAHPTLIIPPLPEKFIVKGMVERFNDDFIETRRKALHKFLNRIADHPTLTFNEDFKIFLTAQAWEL

SNX27 = target: T4, SNX27 (Homo sapiens, UniProt Q96L92)
T4 construct: PX domain only, N-terminal GST removed by thrombin, E. coli

SNX19 = target: T5, SNX19 (Homo sapiens, UniProt Q92543)
T5 construct: a GST-tagged form was also made), E. coli
T5 sequence (Q92543 533-663 limits assumed): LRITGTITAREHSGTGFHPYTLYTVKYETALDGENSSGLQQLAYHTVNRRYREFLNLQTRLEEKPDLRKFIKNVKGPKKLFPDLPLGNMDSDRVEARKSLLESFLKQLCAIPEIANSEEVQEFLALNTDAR

p40phox = target: T6, p40phox (Homo sapiens, UniProt Q15080)
T6 construct: gene NCF4; PX domain only, N-terminal GST removed by thrombin, E. coli
T6 sequence (Q15080 19-140 limits assumed): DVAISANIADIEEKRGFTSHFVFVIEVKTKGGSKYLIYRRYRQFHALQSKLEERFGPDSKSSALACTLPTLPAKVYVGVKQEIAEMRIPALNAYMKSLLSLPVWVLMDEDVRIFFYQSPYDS

PXK = target: T7, PXK (Homo sapiens, UniProt Q7Z7A4)
T7 construct: PX domain only, N-terminal GST removed by thrombin, E. coli
T7 sequence (Q7Z7A4 14-126 limits assumed): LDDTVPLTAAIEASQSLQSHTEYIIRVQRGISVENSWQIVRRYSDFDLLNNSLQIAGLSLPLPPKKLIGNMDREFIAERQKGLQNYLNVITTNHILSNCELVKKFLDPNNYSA

SNX16 = target: T8, SNX16 (Homo sapiens, UniProt P57768)
T8 construct: PX domain only, N-terminal GST removed by thrombin, E. coli
T8 sequence (P57768 105-218 limits assumed): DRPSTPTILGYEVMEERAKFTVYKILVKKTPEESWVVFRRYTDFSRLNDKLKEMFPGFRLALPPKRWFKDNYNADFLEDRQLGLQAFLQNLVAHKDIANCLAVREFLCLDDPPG

T1 sequence (O60493 27-151 limits assumed): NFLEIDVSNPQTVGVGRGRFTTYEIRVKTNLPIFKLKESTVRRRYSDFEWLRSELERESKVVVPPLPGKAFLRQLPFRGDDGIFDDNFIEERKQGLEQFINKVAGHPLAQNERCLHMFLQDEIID

CCCCCCCC(=O)OC[C@H](COP(=O)(O)O[C@@H]1[C@H](O)[C@H](OP(=O)(O)O)[C@@H](O)[C@H](O)[C@H]1O)OC(=O)CCCCCCC [PtdIns3P, 1,2-dioctanoyl-sn-glycero-3-(phosphoinositol-3-phosphate)]
liposome pelleting (SNX3): exclusive interaction with liposomes containing PtdIns3P (SNX3 | liposome pelleting (SNX17): exclusive interaction with liposomes containing PtdIns3P (SNX3, SNX7, SNX19, SNX17 | liposome pelleting (SNX7): exclusive interaction with liposomes containing PtdIns3P (SNX3, SNX7 | liposome pelleting (SNX27): exclusive interaction with liposomes containing PtdIns3P (SNX3, SNX7, SNX19, SNX17, SNX27 | liposome pelleting (SNX19): exclusive interaction with liposomes containing PtdIns3P (SNX3, SNX7, SNX19 | liposome pelleting (p40phox): (SNX3, SNX7, SNX19, SNX17, SNX27, p40phox, PXK, and SNX16) | liposome pelleting (PXK): (SNX3, SNX7, SNX19, SNX17, SNX27, p40phox, PXK, and SNX16) | liposome pelleting (SNX16): (SNX3, SNX7, SNX19, SNX17, SNX27, p40phox, PXK, and SNX16)
